Source: patent US4318916A, “Antibiotic PS-5 and derivatives having β-lactamase inhibitory activity and production thereof” (Sanraku-Ocean Co., Ltd., priority 1977, dated 1982)
Where two headings read alike, the source gives them in different places.

What was measured:
[1] = Solubility of trityl ester of antibiotic PS-5; format: physicochemical
Description: The solubility of the tritylation product of the antibiotic PS-5 was determined by dissolving under […] 5 mg each of the tritylation product of the antibiotic PS-5 in 0.1 ml each of the test solvents at 20° C.

[2] = pH and heat stability of trityl ester of antibiotic PS-5; format: physicochemical; settings: for remaining at 0.5 h: phosphate buffer, read-out: Residual activity
Description: The trityl ester of antibiotic PS-5 was dissolved in one volume of methanol and then diluted with 9 volumes of distilled water as soon as possible to provide a solution of 125 CCU/ml. A tenth molar dipotassium phosphate solution was adjusted with 5 N phosphoric acid or 5 N sodium hydroxide to the indicated pH's in the range of 3-9.
To one milliliter each of the phosphate buffers, one milliliter each of the said solution of the trityl ester of antibiotic PS-5 was added and, if necessary, the pH value of the mixture was readjusted with phosphoric acid or sodium hydroxyde to the desired pH value. […]
The control solution (pH 7.0) was kept in an ice bath for the experimental period. The residual antibiotic activity was assayed by the routine disc assay method with Comamonas terrigena B-996 as the test microorganism.

[3] = 5 mg in 0.1 ml solvent at 20° C.

In the case of `CCC1C(=O)N2C(C(=O)OC(c3ccccc3)(c3ccccc3)c3ccccc3)=C(SCCNC(C)=O)CC12` (single isomer, unassigned) [Trityl PS-5], the “Solubility in benzene, ethyl acetate, chloroform, methanol, ethanol, acetone, DMF and DMSO” value [1, 3] is reported as “Highly soluble”, the “Solubility in water, n-hexane and petroleum ether” value [1, 3] is reported as “Substantially insoluble” and the “Solubility in benzene, ethyl acetate, chloroform, acetone and dimethyl sulfoxide” value ([1]; general description) is reported as “soluble”. For the same molecule, the “Solubility in water, hexane and petroleum ether” value ([1]; general description) was “substantially insoluble”, the Loss of activity ([2]; aqueous solution, pH 7.5 for 90 minutes at 60° C.) was “no substantial loss of activity” and the remaining at 0.5 h ([2]; pH 3.0, 60° C. for 30 minutes, percent of control) was 0%. The remaining at 0.5 h ([2]; pH 4.0, 60° C. for 30 minutes) was 0%, the remaining at 0.5 h ([2]; pH 5.0, 60° C. for 30 minutes) was 6.5% and the remaining at 0.5 h ([2]; pH 6.0, 60° C. for 30 minutes) was 79%. The remaining at 0.5 h ([2]; pH 7.0, 60° C. for 30 minutes) was 100%, the remaining at 0.5 h ([2]; pH 8.0, 60° C. for 30 minutes) was 100% and the remaining at 0.5 h ([2]; pH 9.0, 60° C. for 30 minutes) was 100%.
